30 molecules from patent US5071965A, “Novel TC-99M complexes” (Mallinckrodt Medical, Inc., priority 1989, dated 1991) can be followed below.

This data set in a line: Biodistribution of Tc-99m complexes in guinea pigs (heart uptake, heart/blood). Conditions: for Guinea Pig Heart/Blood Ratio / 5 Minute Guinea Pig % HT Uptake: 5 minutes, Tc-99m complex; for 5 Minute Guinea Pig % HT Uptake: jugular vein injection.

Method: The procedures used for determining biodistribution are as follows.
Guinea Pigs--The guinea pigs are anesthetized and the technetium complex is injected into the jugular vein after a cutdown. The animals are sacrificed after 5 minutes and the organs removed and counted as with the rats.
For guinea pigs, significant heart uptake is determined if the percentage of technetium in the heart is greater than 0.5% and the heart/blood ratio is greater than 1.

For `COc1ccc(C=NCC(C)(CN=Cc2ccc(OC)cc2O)CN=Cc2ccc(OC)cc2O)c(O)c1` (centres unmarked) [R5=H, R6=OCH3, R7=H, R8=H, R3=H, R4=CH3, 3-Methoxyphenol, 6,6'-[[2-[[[(4-methoxy-2-hydroxyphenyl)methylene]amino]methyl]-2-methyl-1,3-propanediyl]bis(nitrilomethylidyne)]bis-], the “Guinea Pig Heart/Blood Ratio” value is 16 and the “5 Minute Guinea Pig % HT Uptake” value is given as 2.11%.
For the molecule `COc1cc(O)c(C=NCC(C)(CN=Cc2c(O)cc(OC)c(C)c2OC)CN=Cc2c(O)cc(OC)c(C)c2OC)c(OC)c1C` (centres unmarked) [3,5-dimethoxy-4-methyl-phenol, 2,2'-[[2-[[[(4,6-dimethoxy-5-methyl-2-hydroxyphenyl)methylene]amino]methyl]-2-methyl-1,3-propanediyl]bis(nitrilomethylidyne)]bis-], the “5 Minute Guinea Pig % HT Uptake” value was 0.84%.
For `CCCOCC(CN=Cc1ccc(C)cc1O)(CN=Cc1ccc(C)cc1O)CN=Cc1ccc(C)cc1O` (centres unmarked) [3-Methylphenol, 6,6'-[[2-[[[(4-methyl-2-hydroxyphenyl)methylene]amino]methyl]-2-propoxymethyl-1,3-propanediyl]bis(nitrilomethylidyne)]bis-], the “5 Minute Guinea Pig % HT Uptake” value is recorded as 1.79%.
With `CCCOCC(CNCc1ccccc1O)(CNCc1ccccc1O)CNCc1ccccc1O` [Example 96, 1,1,1-tris(2-hydroxyphenylmethylaminomethyl)-2-propoxyethane], the “guinea pig biodistributions, compared with the complex of Example 95” value (complex made from the reduced ligand) is on record as “identical”.
On to `Oc1ccccc1C=NCC(CN=Cc1ccccc1O)(CN=Cc1ccccc1O)COc1cccc2ccccc12` (stereo not drawn) [phenol, 2,2'[[2-[[[(2-hydroxyphenyl)methylene]amino]methyl]-2-α-napthoxymethyl-1,3-propanediyl]bis(nitrilomethylidyne)]bis-], for which the “5 Minute Guinea Pig % HT Uptake” value stood at 0.72%.
Turning to `COc1cc(O)c(C=NCC(CN=Cc2c(O)cc(OC)c(OC)c2OC)(CN=Cc2c(O)cc(OC)c(OC)c2OC)COCc2ccccc2)c(OC)c1OC` (centres unmarked) [3,4,5-trimethoxyphenol, 2,2'-[[2-[[[(4,5,6-trimethoxy-2-hydroxyphenyl)methylene]amino]methyl]-2-phenylmethoxymethyl-1,3-propanediyl]bis(nitrilomethylidyne)]bis-], the “5 Minute Guinea Pig % HT Uptake” value stood at 0.60%.
Take `COCCOCC(CN=Cc1ccccc1O)(CN=Cc1ccccc1O)CN=Cc1ccccc1O` (centres unmarked) [phenol, 2,2'-[[2-[[[(2-hydroxyphenyl)methylene]amino]methyl]-2-methoxyethoxymethyl-1,3-propanediyl]bis(nitrilomethylidyne)]bis-]: the “5 Minute Guinea Pig % HT Uptake” value turned out to be 1.01%.
With `Oc1ccccc1C=NCC(CN=Cc1ccccc1O)CN=Cc1ccccc1O` (centres unmarked) [R5=H, R6=H, R7=H, R8=H, R3=H, R4=H, phenol, 2,2'-[[2-[[[ (2-hydroxyphenyl)methylene]amino]methyl]-1,3-propanediyl]bis(nitrilomethylidyne)]bis-], the “5 Minute Guinea Pig % HT Uptake” value came out at 1.29%.
`CCC(=NCC(C)(CN=C(CC)c1ccccc1O)CN=C(CC)c1ccccc1O)c1ccccc1O` (centres unmarked) [phenol, 2,2'-[[2-[[[(2-hydroxyphenyl)propylene]amino]methyl]-2-methyl-1,3-propanediyl]bis(nitrilopropylidyne)]bis-]: the “5 Minute Guinea Pig % HT Uptake” value amounted to 0.76%.
On the same count and under the same terms, next, `COc1cc(O)c(C=NCC(C)(CN=Cc2c(O)cc(OC)c(OC)c2OC)CN=Cc2c(O)cc(OC)c(OC)c2OC)c(OC)c1OC` (centres unmarked) [3,4,5-trimethoxyphenol, 2,2'-[[2-[[[(4,5,6-trimethoxy-2-hydroxyphenyl)methylene]amino]methyl]-2-methyl-1,3-propanediyl]bis(nitrilomethylidyne)]bis-]: 1.57%; `COCC(CN=Cc1c(O)cc(OC)c(OC)c1OC)(CN=Cc1c(O)cc(OC)c(OC)c1OC)CN=Cc1c(O)cc(OC)c(OC)c1OC` (centres unmarked) [3,4,5-trimethoxyphenol, 2,2'-[[2-[[[(4,5,6-trimethoxy-2-hydroxyphenyl)methylene]amino]methyl]-2-methoxymethyl-1,3-propanediyl]bis(nitrilomethylidyne)]bis-]: 0.86%; `COc1cc(COCC(CN=Cc2c(O)cc(OC)c(OC)c2OC)(CN=Cc2c(O)cc(OC)c(OC)c2OC)CN=Cc2c(O)cc(OC)c(OC)c2OC)cc(OC)c1OC` (centres unmarked) [3,4,5-trimethoxyphenol, 2,2'-[[2-[[[(4,5,6-trimethoxy-2-hydroxyphenyl)methylene]amino]methyl]-2-(3,4,5-trimethoxyphenyl)methoxymethyl-1,3-propanediyl]bis(nitrilomethylidyne)]bis-]: 0.98%.
As to `Cc1ccc(O)c(C=NCC(C)(CN=Cc2cc(C)ccc2O)CN=Cc2cc(C)ccc2O)c1` (centres unmarked) [R5=H, R6=H, R7=CH3, R8=H, R3=H, R4=CH3], the “Guinea Pig Heart/Blood Ratio” value came out at 18 and the “5 Minute Guinea Pig % HT Uptake” value amounted to 1.82%.
In the case of `Oc1ccccc1C=NCC(CN=Cc1ccccc1O)(CN=Cc1ccccc1O)COCc1ccccc1` (centres unmarked) [phenol, 2,2'-[[2-[[[(2-hydroxyphenyl)methylene]amino]methyl]-2-phenylmethoxymethyl-1,3-propanediyl]bis(nitrilomethylidyne)]bis-], the “5 Minute Guinea Pig % HT Uptake” value was found to be 1.60%.
For `Oc1ccc(F)cc1C=NCC(CN=Cc1cc(F)ccc1O)(CN=Cc1cc(F)ccc1O)COCc1ccccc1` (centres unmarked) [4-fluorophenol, 2,2'-[[2-[[[(5-fluoro-2-hydroxyphenyl)methylene]amino]methyl]-2-phenylmethoxymethyl-1,3-propanediyl]bis(nitrilomethylidyne)]bis-], the “5 Minute Guinea Pig % HT Uptake” value is 1.14%.
Take `COc1cccc(O)c1C=NCC(C)(CN=Cc1c(O)cccc1OC)CN=Cc1c(O)cccc1OC` (centres unmarked) [R5=H, R6=H, R7=H, R8=OCH3, R3=H, R4=CH3, 3-Methoxyphenol, 2,2'-[[2-[[[(6-methoxy-2-hydroxyphenyl)methylene]amino]methyl]-2-methyl-1,3-propanediyl]bis(nitrilomethylidyne)]bis-]: the “5 Minute Guinea Pig % HT Uptake” value is 1.55%.
As for `CCCCCCCC(=O)OCC(CN=Cc1ccccc1O)(CN=Cc1ccccc1O)CN=Cc1ccccc1O` (centres unmarked) [phenol, 2,2'-[[2-[[[(2-hydroxypheny)methylene]amino]methyl]-2-octanoyloxymethyl-1,3-propanediyl]bis(nitrilomethylidyne)]bis-], the “5 Minute Guinea Pig % HT Uptake” value worked out at 0.88%.
Take `CCC(C)OCC(CN=Cc1ccccc1O)(CN=Cc1ccccc1O)CN=Cc1ccccc1O` (centres unmarked) [Phenol, 2,2'-[[2-[[[(2-hydroxyphenyl)methylene]amino]methyl]-(1-methylpropoxy)methyl-1,3-propanediyl]bis(nitrilomethylidyne)]bis-]: the “5 Minute Guinea Pig % HT Uptake” value came out at 1.55%.
For `CCOc1ccc(C=NCC(C)(CN=Cc2ccc(OCC)cc2O)CN=Cc2ccc(OCC)cc2O)c(O)c1` (centres unmarked) [3-Ethoxyphenol, 6,6'-[[2[[[(4-ethoxy-2-hydroxyphenyl)methylene]amino]methyl-2-methyl-1,3-propanediyl]bis(nitrilomethylidyne)]bis-], the “5 Minute Guinea Pig % HT Uptake” value was determined as 0.98%.
The same measure, in the same setting: next, “phenol, 2,2'-[[2-[[[(2-hydroxyphenyl)methylene]amino]methyl]-2-(4-methoxy-4-methyl)pentyl-1,3-propanediyl]bis(nitrilomethylidyne)]bis-”: 1.61%; `CN(C)c1ccc(C=NCC(C)(CN=Cc2ccc(N(C)C)cc2O)CN=Cc2ccc(N(C)C)cc2O)c(O)c1` (centres unmarked) [3-Dimethylaminophenol, 6,6'-[[2-[[[(4-dimethylamino-2-hydroxy-phenyl)methylene]amino]methyl]-2-methyl-1,3-propanediyl]bis-(nitrilomethylidyne)]bis-]: 0.72%; `CSc1ccc(O)c(C=NCC(C)(CN=Cc2cc(SC)ccc2O)CN=Cc2cc(SC)ccc2O)c1` (centres unmarked) [R5=H, R6=H, R7=SCH3, R8=H, R3=H, R4=CH3, 4-methylthiophenol, 2,2'-[[2-[[[(5-methylthio-2-hydroxyphenyl)methylene]amino-]methyl]-2-methyl-1,3-propanediyl]bis(nitrilomethylidyne)]bis-]: 1.23%.
For `COC(=O)c1ccc(O)c(C=NCC(C)(CN=Cc2cc(C(=O)OC)ccc2O)CN=Cc2cc(C(=O)OC)ccc2O)c1` (centres unmarked) [methyl-4-hydroxybenzoate, 3,3'-[[2-[[[(5-carbomethoxy-2-hydroxyphenyl)methylene]amino]methyl]-2-methyl-1,3-propanediyl]bis(nitrilomethylidyne)]bis-], the “5 Minute Guinea Pig % HT Uptake” value worked out at 1.23%.
With `COC(C)(C)Cc1ccc(O)c(C=NCC(C)(CN=Cc2cc(CC(C)(C)OC)ccc2O)CN=Cc2cc(CC(C)(C)OC)ccc2O)c1` (centres unmarked) [4-(2-methoxy-2-methyl-propyl)phenol, 2,2'-[[2-[[[(5-(2-methoxy-2-methyl-propyl)-2-hydroxyphenyl)methylene]amino]methyl]-2-methyl-1,3-propanediyl]bis(nitrilomethylidyne)]bis-], the “5 Minute Guinea Pig % HT Uptake” value worked out at 0.49%.
Turning to `CCCOCC(CN=Cc1ccc(OC)cc1O)(CN=Cc1ccc(OC)cc1O)CN=Cc1ccc(OC)cc1O` (centres unmarked), the “5 Minute Guinea Pig % HT Uptake” value was determined as 0.87%.
Turning to `CCCCCC(CN=Cc1ccccc1O)(CN=Cc1ccccc1O)CN=Cc1ccccc1O` (centres unmarked) [Phenol, 2,2'-[[2[[[(2-hydroxyphenyl)methylene]amino]methyl]-2-pentyl-1,3-propanediyl]bis(nitrilomethylidyne)]bis-], the “5 Minute Guinea Pig % HT Uptake” value worked out at 1.15%.
On the same count and under the same terms, next, `CC(CN=Cc1cc(F)ccc1O)(CN=Cc1cc(F)ccc1O)CN=Cc1cc(F)ccc1O` (centres unmarked) [R5=H, R6=H, R7=F, R8=H, R3=H, R4=CH3]: 1.30%.
For the molecule `COCCCCC(CN=Cc1ccccc1O)(CN=Cc1ccccc1O)CN=Cc1ccccc1O` (centres unmarked), the “5 Minute Guinea Pig % HT Uptake” value was found to be 1.66%.
Still for that read-out and setting: next, `Oc1c(F)cc(F)cc1C=NCC(CN=Cc1cc(F)cc(F)c1O)(CN=Cc1cc(F)cc(F)c1O)COCc1ccccc1` (centres unmarked) [2,4-difluorophenol, 2,2'-[[2-[[[(3,5-difluoro-2-hydroxyphenyl)methylene]amino]methyl]-2-phenylmethoxymethyl-1,3-propanediyl]bis(nitrilomethylidyne)]bis-]: 1.72%.
As to `CCCCCOCC(CN=Cc1ccccc1O)(CN=Cc1ccccc1O)CN=Cc1ccccc1O` (centres unmarked) [Phenol, 2,2'-[[2-[[[(2-hydroxyphenyl)methylene]amino]methyl]-2-pentyloxymethyl-1,3-propandiyl]bis(nitrilomethylidyne)]bis-], the “5 Minute Guinea Pig % HT Uptake” value turned out to be 1.22%.
